“And” between values parts separate entries of the source, which are not always exact repeats. Equal values may be shown once.
How the values were obtained:
[1] = set-up: method as in PMID 23684935; settings: cited from earlier work
[2] = set-up: method as in PMID 23684935; settings: rabbits; oral dose of 100 mg/kg; cited from earlier work
P-gp [3] = target: T1, P-gp (Homo sapiens, UniProt P08183); assay: Rh123 accumulation in non-induced KB cells; type: cell-based; settings: CLA 5 μmol/L, Rh123 5 μmol/L
T1 construct: three cells expressing P-gp, Caco-2, KBv and rat brain microvessel endothelial cells (RBMEC); endogenous in cells; host or cells: Caco-2
T1 sequence (P08183 whole entry): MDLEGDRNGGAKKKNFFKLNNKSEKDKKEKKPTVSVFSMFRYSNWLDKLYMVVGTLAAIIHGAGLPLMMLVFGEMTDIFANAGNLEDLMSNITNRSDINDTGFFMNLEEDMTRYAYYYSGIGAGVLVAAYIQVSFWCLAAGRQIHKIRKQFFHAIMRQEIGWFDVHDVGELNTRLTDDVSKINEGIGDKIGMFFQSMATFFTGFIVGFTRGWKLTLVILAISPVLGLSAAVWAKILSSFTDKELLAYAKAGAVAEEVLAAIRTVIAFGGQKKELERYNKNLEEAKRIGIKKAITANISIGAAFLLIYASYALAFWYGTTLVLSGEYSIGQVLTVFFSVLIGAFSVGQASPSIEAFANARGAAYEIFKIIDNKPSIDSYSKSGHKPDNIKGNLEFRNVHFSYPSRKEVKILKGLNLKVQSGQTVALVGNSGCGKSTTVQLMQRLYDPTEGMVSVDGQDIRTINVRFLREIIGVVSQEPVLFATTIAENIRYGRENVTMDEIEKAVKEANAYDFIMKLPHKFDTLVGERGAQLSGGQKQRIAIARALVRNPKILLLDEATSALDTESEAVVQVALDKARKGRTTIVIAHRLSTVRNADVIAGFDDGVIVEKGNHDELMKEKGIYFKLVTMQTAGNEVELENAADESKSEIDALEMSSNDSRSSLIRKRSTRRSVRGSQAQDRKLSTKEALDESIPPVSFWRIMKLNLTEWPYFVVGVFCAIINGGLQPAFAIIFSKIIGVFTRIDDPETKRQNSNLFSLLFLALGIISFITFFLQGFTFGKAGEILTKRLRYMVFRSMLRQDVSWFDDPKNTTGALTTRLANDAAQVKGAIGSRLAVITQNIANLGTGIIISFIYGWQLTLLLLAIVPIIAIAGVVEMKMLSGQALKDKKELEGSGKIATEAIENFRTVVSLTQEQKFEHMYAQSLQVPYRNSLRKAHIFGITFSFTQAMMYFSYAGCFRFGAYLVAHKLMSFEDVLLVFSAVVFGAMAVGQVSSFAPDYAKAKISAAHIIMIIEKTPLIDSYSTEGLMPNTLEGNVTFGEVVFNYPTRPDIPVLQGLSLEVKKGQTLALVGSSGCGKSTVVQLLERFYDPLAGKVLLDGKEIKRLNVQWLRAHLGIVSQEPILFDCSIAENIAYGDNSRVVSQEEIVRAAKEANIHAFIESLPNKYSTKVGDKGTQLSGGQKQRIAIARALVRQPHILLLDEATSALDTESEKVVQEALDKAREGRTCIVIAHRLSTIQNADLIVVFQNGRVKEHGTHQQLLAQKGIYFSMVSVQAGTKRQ
Experimental: (§1) KB or its vinblastine-resistance derivative KBv cells[19] were maintained on 6-well plates (5 × 10^5 cells/well) in […] medium with 10% FBS, 100 units/mL penicillin and 100 μg/mL streptomycin sulphate at 37°C with 95% air and 5% CO2. After reaching 80%–90% confluence, the two cells were treated with the following agents, respectively: vehicle; (−)CLA (5 or 10 μmol/L); (+)CLA (5 or 10 μmol/L). Additionally, the KBv cells were treated with verapamil (200 μmol/L); or individual enantiomer (5 or 10 μmol/L) plus verapamil (200 μmol/L). Rh123 (5 μmol/L) were finally added to these wells. Subsequently, cell incubation, solubilisation and Rh123 accumulation were performed by using the same method for Caco-2 cells.

P-gp [4] = target: T1, P-gp; assay: Rh123 accumulation in KBv cells; type: cell-based; settings: for Percentage of rhodamine 123 accumulation relative to vehicle treatment: positive = increase; for Effect on P-gp efflux activity when combined with verapamil (in words): higher concentration CLA 10 μmol/L plus verapamil 200 μmol/L
Experimental: as §1

CYP3A1 = tested on: CYP3A1; set-up: method as in PMID 23684935, PMID 12692891; settings: rat liver; cited from earlier work
[5] = high dose, CLA 10 μmol/L, Rh123 5 μmol/L
[6] = low dose, CLA 5 μmol/L, Rh123 5 μmol/L

SMILES | Ratio [(+)/(−)] of cumulative amounts of biliary excretion [1] | Ratio [(+)/(−)] of cumulative amounts of urinary excretion [1] | AUC0–8 h in the portal vein [2] | Decrease of Rh123 accumulation vs. control (P-gp [3]) | Percentage of rhodamine 123 accumulation relative to vehicle treatment (P-gp [4]; [5]) | Effect on P-gp efflux activity when combined with verapamil (in words) (P-gp [4]) | Antagonism of the inhibition of verapamil to P-gp relative to verapamil treatment alone (P-gp [4]; low concentration CLA 5 μmol/L plus verapamil 200 μmol/L) | Percentage of rhodamine 123 accumulation relative to vehicle treatment (P-gp [4]; [6]) | Decrease of Rh123 intracellular accumulation vs. control (P-gp [4]; lower concentration, CLA 5 μmol/L, Rh123 5 μmol/L) | Increase of Rh123 accumulation vs. control (P-gp [3]) | Induction of CYP3A1 expression, comparison of enantiomers (CYP3A1)
CN1C(=O)[C@H](O)[C@@H](c2ccccc2)[C@H]1[C@H](O)c1ccccc1 [(+)CLA, 3R,4S,5S,6R-CLA] | 3.49 | 3.81 | 2453 ± 1101 µg·h/mL | 28.2% | 24.5% and 24.49% | synergistic effect | 35.5% | -25.92% | 25.9% | – | –
CN1C(=O)[C@@H](O)[C@H](c2ccccc2)[C@@H]1[C@@H](O)c1ccccc1 [(−)CLA, 3S, 4R, 5R, 6S-clausenamide] | – | – | 1001 ± 487 µg·h/mL | – | 30.0% | synergistic effect | – | 8.2% and 8.16% | – | 18.0% | higher expression of CYP3A1 than the (+)-isomer

— PMC4546427, “Stereoselective Regulation of P-gp Activity by Clausenamide Enantiomers in Caco-2, KB/KBv and Brain Microvessel Endothelial Cells” (PLoS ONE, 2015)
